Assay results from US12296023B2, “Chemically and photochemically initiated cell membrane blebbing to induce cell vesicle production, modifications thereof, and uses thereof” (The Regents of the University of California, priority 2018, dated 2025).

Legend:
[1] = tested on: HeLa cells; assay: N-ethylmaleimide induced cell vesicle production time course; assay type: cell-based, human; settings: 2 mM NEM in 1×DPBS; 1 h, 3 h, 5 h, 8 h, 24 h
Experimental: Protocol for N-ethylmaleimide induced cell vesicle production: HeLa cells were plated at 70% confluency (6×10^6 cells/100 mm cell culture plate) and incubated for 4 h at 37° C. and 5% CO2. Media was removed and cells were washed three times with 10 mL of 1×DPBS. […] Cells were imaged using a standard inverted light microscope and DPBS solution containing ICVs were collected, isolated, and analyzed by dynamic light scattering (DLS) for size.
Protocol for nano- and microscale induce cell vesicle isolation: Cells and debris were removed by centrifugation at 1200 rpm for 5.5 min, repeated three times, each time collecting supernatant into a clean tube. Then, mICVs were isolated from the supernatant by centrifugation at 16,000×g for 10 min. After the first spin, supernatant was collected for nICV isolation while micro ICV pellets were washed with 1×DPBS. This was repeated two additional times, discarding supernatant and washing the mICV pellet with 1×DPBS. nICVs were isolated using 100 kDa Amicon® ultrafiltration at 3300×g for 15 min, repeated three times with 1×DPBS washes. Final mICVs and nICVs collected were suspended in 100 uL 1×DPBS and then characterized.
(§1) Characterization of mICVs and nICVs: mICVs and nICVs were imaged using a bright field microscope and inverted light microscope. The sizing of produced ICVs were measured by using dynamic light scattering (DLS). […]

[2] = tested on: AAV isolate from lysate; assay: Transduction of NEM-treated AAV from producer cell lysate; assay type: cell-based, AAV2
[3] = tested on: stock AAV; assay: Transduction of NEM-treated stock AAV; assay type: cell-based, AAV2
[4] = tested on: E.G7-OVA cells; assay: Tumor challenge study after vaccination; assay type: in vivo, C57BL/6 mice; settings: for tumor growth: s.c. vaccination plus booster, 300,000 E.G7-OVA cells s.c.; for survival: tumor challenge
Experimental: Tumor challenge study. 12 wk.-old C57BL/6 mice (Charles River Laboratories, Wilmington, MA) were vaccinated by s.c. injection with DPBS, OVA protein, SIINFEKL peptide, SIINFEKL-presenting BDMCs, or SIINFEKL-presenting BMDC mICVs. With the exception of the control (DPBS) group, each group received vaccinations that were equivalent to a dosage of 100 μL of 50 μM SIINFEKL as quantified by CPRG assay. Vaccinations were given twice 14 days apart. 7 days after the second injection, mice were injected s.c. with 300,000 E.G7-OVA cells in the right flank. Tumor growth was monitored by measuring the tumor size with calipers every 48 h.
Mice received a single vaccination followed by a booster vaccination two weeks later). Seven days after completion of a vaccination schedule. mice were challenged with E.G7-OVA cells and tumor growth was assessed over four weeks. FIG. 72 provides images from Day 30 of the tumor challenge with mice by vaccine category. […] The foregoing tumor challenge result indicates promise for use of antigenic ICVs as effective cancer vaccines.

[5] = tested on: HeLa cells; assay: AlPcS2A photoinitiated induced cell vesicle production (670 nm laser); assay type: cell-based, human; settings: 1 ug/mL for 24 h then light, vs light alone
Experimental: Protocol for Photoinitiated induced cell vesicle production: HeLa cells were plated at 70% confluency (6×10^6 cells/100 mm cell culture plate) and incubated for 4 h at 37° C. and 5% CO2. Cells were then imaged to confirm adherence to the plate and, in the dark, media was changed to media containing 1 ug/mL of the photosensitizer aluminum disulfonated phthalocyanine (AlPcS2A) (10 mL of photosensitizer media per 100 mm each plate). Plates were wrapped in tinfoil and allowed to incubate for 24 h at 37° C. and 5% CO2. In the dark, the photosensitive media was removed and cells were washed three times with 10 mL of 1×DPBS. Then, 6 mL of 1×DPBS was added to each 100 mm plate and the plates were subjected to a 670 nm laser for varying time doses (10 min, 5 min, 2.5 min, 1.25 min). Cells were imaged using a standard inverted light microscope, and the DPBS solution containing ICVs was collected. 6 mL of fresh 1×DPBS was added to each 100 mm plate and the plates were incubated at 37° C. and 5% CO2 for 18 h to investigate ICV formation effects over time. Cells were imaged using a standard inverted light microscope and the DPBS solution containing ICVs was collected. […]
as §1

CCN1C(=O)C=CC1=O [NEM, N-ethylmaleimide]
formation of nICVs [1]: induced the formation of nICVs at each time point
transduction of AAV isolate from lysate ([2]; NEM exposure 8 hours vs 0-minute timepoint): about half the transduction
transduction of AAV isolate from lysate ([2]; NEM exposure up to 4 hours): only a minimal drop in transduction
stock AAV transduction efficiency ([3]; NEM incubation 10 minutes): reducing the transduction efficiency
stock AAV transduction ([3]; NEM incubation 2 hours): almost no transduction

OVA: OVA protein vaccination control
tumor growth [4]: rapidly developed tumors
survival [4]: died prior to day 35

SIINFEKL [antigen peptide vaccination control]
tumor growth [4]: rapidly developed tumors
survival [4]: died prior to day 35

aluminum disulfonated phthalocyanine [AlPcS2A]
yield of nICVs and mICVs [5]: greatly increased the yield of nICVs and mICVs
